Measured values from the NIST ThermoML archive (doi:10.1016/j.jct.2010.12.028).

Experiments:
[1] = excess molar enthalpy (molar enthalpy of mixing); xn = mol fraction of the nth substance listed; settings: 308.15 K, 101 kPa, Liquid
[2] = xn = mol fraction of the nth substance listed; settings: 101 kPa, Liquid; for speed of sound: Sing-around technique in a fixed-path interferometer; for mass density: Vibrating tube method

Cc1ccncc1 [4-methylpyridine] + Cc1ccccc1N
[1]
Settings | excess molar enthalpy [kcal/mol]
x2 = 0.0426 | -0.0583
x2 = 0.0815 | -0.106
x2 = 0.1339 | -0.166
x2 = 0.1824 | -0.211
x2 = 0.2243 | -0.246
x2 = 0.2715 | -0.282
x2 = 0.3196 | -0.305
x2 = 0.3825 | -0.332
x2 = 0.4238 | -0.341
x2 = 0.4783 | -0.342
x2 = 0.5362 | -0.338
x2 = 0.5915 | -0.322
x2 = 0.6426 | -0.303
x2 = 0.7121 | -0.261
x2 = 0.7827 | -0.212
x2 = 0.8211 | -0.178
x2 = 0.8916 | -0.114
x2 = 0.9672 | -0.0361

[2]
Settings | mass density, 298.15 K [kg/m3] | mass density, 303.15 K [kg/m3] | mass density, 308.15 K [kg/m3] | speed of sound, 298.15 K [m/s] | speed of sound, 303.15 K [m/s] | speed of sound, 308.15 K [m/s]
x2 = 0.0525 | 953.707 | 949.033 | 944.539 | 1440.5 | 1419.5 | 1399.3
x2 = 0.1236 | 958.201 | 953.635 | 949.213 | 1452.6 | 1431.8 | 1412.2
x2 = 0.1357 | 958.939 | 954.384 | 949.974 | 1454.8 | 1433.9 | 1414.4
x2 = 0.1839 | 961.774 | 957.264 | 952.886 | 1463.1 | 1442.5 | 1423.2
x2 = 0.2328 | 964.507 | 960.045 | 955.673 | 1471.4 | 1451.2 | 1432.1
x2 = 0.2655 | 966.252 | 961.821 | 957.455 | 1477.1 | 1457 | 1438.1
x2 = 0.3023 | 968.154 | 963.746 | 959.382 | 1483.4 | 1463.5 | 1444.7
x2 = 0.3539 | 970.688 | 966.314 | 961.964 | 1492.2 | 1472.7 | 1453.9
x2 = 0.4133 | 973.431 | 969.1 | 964.753 | 1502.4 | 1483 | 1464.4
x2 = 0.4863 | 976.578 | 972.285 | 967.972 | 1514.7 | 1495.5 | 1476.8
x2 = 0.5256 | 978.183 | 973.912 | 969.611 | 1521.3 | 1501.9 | 1483.2
x2 = 0.5671 | 979.804 | 975.56 | 971.274 | 1528.2 | 1508.7 | 1490
x2 = 0.6272 | 982.039 | 977.832 | 973.587 | 1538.3 | 1518.4 | 1499.7
x2 = 0.6963 | 984.487 | 980.309 | 976.116 | 1549.8 | 1529.2 | 1510.4
x2 = 0.7674 | 986.874 | 982.738 | 978.601 | 1561.7 | 1540.2 | 1521.3
x2 = 0.8234 | 988.699 | 984.584 | 980.475 | 1571.2 | 1548.8 | 1530
x2 = 0.8657 | 990.061 | 985.955 | 981.851 | 1578.4 | 1555.4 | 1536.6
x2 = 0.9537 | 992.867 | 988.752 | 984.639 | 1594 | 1569.8 | 1550.6
